# In ChEMBL document CHEMBL3871267, “Design and synthesis of 1,2,3-triazole-containing N-acyl zanamivir analogs as potent neuraminidase inhibitors” (Eur J Med Chem, 2016):
# Legend:
# [1] = Competitive inhibition of MDCK infected Influenza A virus A/Taiwan/3446/2002(H3N2) neuraminidase using MU-NANA as substrate preincubated for 30 mins followed by substrate addition measured after 1 hr by spectrofluorometric method
# [2] = target: Neuraminidase (Influenza A virus (strain A/Wilson-Smith/1933 H1N1) (Influenza A virus(strain A/WS/1933 H1N1)), UniProt P03470); assay: Competitive inhibition of MDCK infected Influenza A virus A/WSN/33(H1N1) neuraminidase using MU-NANA as substrate preincubated for 30 mins followed by substrate addition measured after 1 hr by spectrofluorometric method; assay type: cell-based, Influenza A virus (A/WSN/1933(H1N1))
# Chain of Neuraminidase (Influenza A virus (strain A/Wilson-Smith/1933 H1N1) (Influenza A virus(strain A/WS/1933 H1N1)), UniProt P03470) (P03470 whole entry): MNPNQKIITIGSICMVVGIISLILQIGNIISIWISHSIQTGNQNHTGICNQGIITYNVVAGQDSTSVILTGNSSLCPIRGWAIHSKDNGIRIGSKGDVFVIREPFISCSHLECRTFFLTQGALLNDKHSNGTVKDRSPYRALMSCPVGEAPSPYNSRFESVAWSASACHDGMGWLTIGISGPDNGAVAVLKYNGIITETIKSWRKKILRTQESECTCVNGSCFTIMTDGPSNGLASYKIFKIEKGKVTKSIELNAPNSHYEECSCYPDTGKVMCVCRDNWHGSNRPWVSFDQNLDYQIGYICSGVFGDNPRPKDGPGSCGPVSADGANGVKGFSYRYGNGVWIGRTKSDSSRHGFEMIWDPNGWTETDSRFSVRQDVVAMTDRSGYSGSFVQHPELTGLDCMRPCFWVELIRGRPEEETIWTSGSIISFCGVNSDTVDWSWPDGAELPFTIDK
# [3] = target: Neuraminidase (Influenza A virus (strain A/Wilson-Smith/1933 H1N1) (Influenza A virus(strain A/WS/1933 H1N1)), UniProt P03470); assay: Inhibition of MDCK infected Influenza A virus A/WSN/33(H1N1) neuraminidase using MU-NANA as substrate preincubated for 30 mins followed by substrate addition measured after 1 hr by spectrofluorometric method; assay type: cell-based, Influenza A virus (A/WSN/1933(H1N1))
# [4] = Inhibition of MDCK infected Influenza A virus A/Taiwan/3446/2002(H3N2) neuraminidase using MU-NANA as substrate preincubated for 30 mins followed by substrate addition measured after 1 hr by spectrofluorometric method; assay type: cell-based
smiles,measurement,setting,value
CC(=O)N[C@H]1C([C@H](O)[C@H](O)CO)OC(C(=O)O)=C[C@@H]1NC(=N)NC(=O)Cn1cc(-c2ccccc2)nn1 (stereo partly drawn),IC50,[1],8 nM
same,IC50,[2],9.9 nM
CC(=O)N[C@H]1[C@H]([C@H](O)[C@H](O)CO)OC(C(=O)O)=C[C@@H]1NC(=N)NC(=O)Cn1cc(-c2ccc(Cl)cc2)nn1,IC50,[3],15 nM
same,IC50,[4],14 nM
CC(=O)N[C@H]1[C@H]([C@H](O)[C@H](O)CO)OC(C(=O)O)=C[C@@H]1NC(=N)NC(=O)Cn1cc(-c2ccc(F)cc2)nn1,IC50,[3],29 nM
same,IC50,[4],27 nM
CC(=O)N[C@H]1[C@H]([C@H](O)[C@H](O)CO)OC(C(=O)O)=C[C@@H]1NC(=N)NC(=O)Cn1cc(-c2cccc(F)c2)nn1,IC50,[3],14 nM
same,IC50,[4],17 nM
CC(=O)N[C@H]1[C@H]([C@H](O)[C@H](O)CO)OC(C(=O)O)=C[C@@H]1NC(=N)NC(=O)CSc1ccc2ccccc2c1,IC50,[3],20 nM
same,IC50,[4],25 nM
COc1ccccc1-c1cn(CC(=O)NC(=N)N[C@H]2C=C(C(=O)O)O[C@@H]([C@H](O)[C@H](O)CO)[C@@H]2NC(C)=O)nn1,IC50,[3],8 nM
same,IC50,[4],10 nM
COc1ccc(-c2cn(CC(=O)NC(=N)N[C@H]3C=C(C(=O)O)O[C@@H]([C@H](O)[C@H](O)CO)[C@@H]3NC(C)=O)nn2)cc1,IC50,[3],12 nM
same,IC50,[4],17 nM
CC(=O)N[C@H]1[C@H]([C@H](O)[C@H](O)CO)OC(C(=O)O)=C[C@@H]1NC(=N)NC(=O)Cn1cc(-c2cccc(N)c2)nn1,IC50,[3],10 nM
same,IC50,[4],11 nM
CC(=O)N[C@H]1C([C@H](O)[C@H](O)CO)OC(C(=O)O)=C[C@@H]1NC(=N)NC(=O)CCCn1cc(-c2ccccc2)nn1 (stereo partly drawn),IC50,[1],228 nM
same,IC50,[2],238 nM
CC(=O)N[C@H]1[C@H]([C@H](O)[C@H](O)CO)OC(C(=O)O)=C[C@@H]1NC(=N)NC(=O)Cn1cc(C2=CCCCC2)nn1,IC50,[3],15 nM
same,IC50,[4],17 nM
CC(=O)N[C@H]1C([C@H](O)[C@H](O)CO)OC(C(=O)O)=C[C@@H]1NC(=N)NC(=O)CCn1cc(-c2ccccc2)nn1 (stereo partly drawn),IC50,[1],135 nM
same,IC50,[2],146 nM
CCOC(=O)c1cccc(-c2cn(CC(=O)NC(=N)N[C@H]3C=C(C(=O)O)O[C@@H]([C@H](O)[C@H](O)CO)[C@@H]3NC(C)=O)nn2)c1,IC50,[3],13 nM
same,IC50,[4],19 nM
CC(=O)N[C@H]1[C@H]([C@H](O)[C@H](O)CO)OC(C(=O)O)=C[C@@H]1NC(=N)NC(=O)Cn1cc(C2CCCCC2)nn1,IC50,[3],2.3 nM
same,IC50,[4],2.9 nM
CC(=O)N[C@H]1[C@H]([C@H](O)[C@H](O)CO)OC(C(=O)O)=C[C@@H]1NC(=N)NC(=O)Cn1cc(-c2ccc(N)cc2)nn1,IC50,[3],12 nM
same,IC50,[4],13 nM
CC(=O)N[C@H]1C([C@H](O)[C@H](O)CO)OC(C(=O)O)=C[C@@H]1NC(=N)NC(=O)CCCCn1cc(-c2ccccc2)nn1 (stereo partly drawn),IC50,[1],110 nM
same,IC50,[2],169 nM
CC(=O)N[C@H]1[C@H]([C@H](O)[C@H](O)CO)OC(C(=O)O)=C[C@@H]1NC(=N)NC(=O)Cn1cc(-c2ccccc2N)nn1,IC50,[3],12 nM
same,IC50,[4],13 nM
CC(=O)N[C@H]1[C@H]([C@H](O)[C@H](O)CO)OC(C(=O)O)=C[C@@H]1NC(=N)NC(=O)Cn1cc(-c2cccc(Cl)c2)nn1,IC50,[3],9 nM
same,IC50,[4],8 nM
CC(=O)N[C@H]1[C@H]([C@H](O)[C@H](O)CO)OC(C(=O)O)=C[C@@H]1NC(=N)NC(=O)Cn1cc(-c2ccc(C)cc2)nn1,IC50,[3],14 nM
same,IC50,[4],17 nM
COc1ccc2cc(-c3cn(CC(=O)NC(=N)N[C@H]4C=C(C(=O)O)O[C@@H]([C@H](O)[C@H](O)CO)[C@@H]4NC(C)=O)nn3)ccc2c1,IC50,[3],31 nM
same,IC50,[4],28 nM
